Here are results for one substance from patent US20100004174A1, “USE OF THYMOSIN ALPHA 1 FOR THE PREPARATION OF A MEDICAMENT FOR THE PREVENTION AND TREATMENT OF AUTOIMMUNE DISEASES” (SIGMA-TAU INDUSTRIE FARMACEUTICHE, priority 2006, published 2010).

No end group written: not given here.

Assay [1] deals with EAE (experimental autoimmune encephalitis). Description: EAE model induced with MOG35-55 peptide in mice, clinical score and spinal cord histology. It counts as in vivo, C57BL6 mice. Here is the method:
To this end, an EAE model was used envisaging the induction of disease by administering a peptide deriving from myelin in susceptible animals. The anima were treated with thymosin alpha 1, whose efficiency was evaluated according to clinical and histological parameters.
EAE is induced in C57BL6 mice by injecting 100 microlitres of emulsion consisting of 100 microgrammes of MOG35-55 (a peptide fragment of a myelinic glycoprotein) in complete Freund adjuvant (CFA, 4 microgrammes/ml) at the base of the tail. EAE induction is favoured by the intraperitoneal administration of the pertoxic toxin at a dosage of 200 ng/mouse the day of immunisation and three days later. The treatment with thymosin alpha 1 (200 ng/Kg) is carried out via intraperitoneal injection according to two experimental designs. In the first case, thymosin is administered starting from the day of MOG administration and for three consecutive days thereafter (Tα1+MOG). In the second case, thymosin is administered starting from the tenth day after MOG administration and for three consecutive days thereafter (MOG+Tα1).
The mice were clinically evaluated daily according to the following parameters: 0, normal; 1, flacid tail or weakness of hind legs; 2, flacid tail associated with weakness of hind legs; 3, partial paralysis of hind legs; 4, total paralysis of hind legs; 5, moribund state. […]

The test system of the next assay is TNBS colitis. Description: TNBS-induced colitis model of IBD (DAS, MAS, MPO). It counts as in vivo, mice. The procedure: To this end, an IBD model was used envisaging the induction of the disease by intracolonic administration of a haptenised derivative of trinitrobenzene sulfonic acid (TNBS). The animals were treated with thymosin alpha 1, whose efficacy was evaluated according to clinical, histological and immunological parameters.
The application of hapten TNBS in the colon causes acute and chronic colitis in the rodents (Fiorucci S, Antonelli E, Distrutti E, Del Soldato P, Flower R J, Clark M J, Morelli A, Perretti M, Ignarro L J. NCX-1015, a nitric-oxide derivative of prednisolone, enhances regulatory T cells in the lamina propria and protects against 2,4,6-trinitrobenzene sulfonic acid-induced colitis in mice. Proc Natl Acad Sci U S A. 2002, 99:15770-5).
The animals were monitored daily for any onset of diarrhea, loss of body weight, blood in the faeces and to check their survival (correlated with the degree of activity of the disease, DAS). At the end of the experiment, the surviving mice were sacrificed, their colon dissected and the microscopic damage was evaluated (called mucosal activity score—MAS). The tissue segments were then used in order to measure the Myeloperoxidase (MPO) activity (an inflammation index).
The sectioned colons were examined under a microscope (×5) and classified according to their microscopic lesions on a scale from 0 to 10 based on criteria reflecting the inflammation, such as hyperemia, bowel thickening, and extension of ulcers.
MPO assays. Neutrophil infiltration in the colon was monitored by measuring MPO activity by means of a spectrophotometric assay with trimethylbenzidine (TMB) as a substrate according to a previously published method (Fiorucci S, Antonelli E, Distrutti E, Del Soldato P, Flower R J, Clark M J, Morelli A, Perretti M, Ignarro L J. NCX-1015, a nitric-oxide derivative of prednisolone, enhances regulatory T cells in the lamina propria and protects against 2,4,6-trinitrobenzene sulfonic acid-induced colitis in mice. Proc Natl Acad Sci U S A. 2002, 99:15770-5). The activity is expressed in U per mg of protein.
(§1) Treatment with thymosin alpha 1. Tα1 (purchased from Sigma, St. Louis, Mo., USA; product no. T3410; molecular formula C129H215N33O55) and the scrambled peptide were provided in the form of sterile dried powders. The powders were reconstituted in sterile water (endotoxin levels were <0.03 pg/ml, by standard Limulus lysate assay). Thymosin alpha 1 was administered at a dosage of 200 microgrammi/kg by intraperitoneal injection for 6 consecutive days starting from the day of TNBS colitis induction.
(§2) All the inflammatory and cytokine assessments were carried out the day after the end of treatment with thymosin alpha 1.

In assay [2] the test system is CD4+CD25+ lymphocytes isolated from the lamina propria. Description: Cytokine determination by ELISA on CD4+CD25+ lamina propria lymphocytes of mice with TNBS colitis. Conditions: TNBS+Tα1 mice; cells stimulated in vitro 48 h with anti-CD3 and anti-CD28, FIG. 4. Type of assay: in vivo. Here is the method: as §1
Cytokine determination. This was carried out via specific ELISA tests (ELISA kit, R&D Systems Inc, Minneapolis, Minn.) on the supernatants of lymphocyte cell cultures of CD4^+CD^25+ phenotype isolated from the lamina propria and stimulated in vitro for 48 h with antibodies directed against CD3 and CD28 molecules expressed on the lymphocytes (PharMingen, BD, Palo Alto, Calif.).
as §2

[3] abbreviates: TNBS colitis, 200 microgrammi/kg intraperitoneal for 6 consecutive days, assessed the day after end of treatment, FIG. 3.

With “thymosin alpha 1 (Ac-SDAAVDTSSEITTKDLKEKKEVVEEAEN; ends and bridges not checked; UniProt P06454 2-29, looked up) [thymic peptide found in nature; purchased from Sigma, product no; T3410]”, the “de-myelination, histological analysis of semifine spinal chord sections coloured with osmium tetroxide” value in assay [1] (MOG-immunised mice treated with thymosin alpha 1, FIG. 2) was “no significant sign of de-myelination”. Further, the “overall effect on EAE incidence and neuropathological severity” value in assay [1] (conclusion from FIG. 1 and FIG. 2) is “protective effect”. In the assay on TNBS colitis (setting [3]), the “DAS (degree of activity of the disease)” value is given as “drastic reduction”, the “MAS (mucosal activity score)” value was “drastic reduction” and the “MPO (myeloperoxidase) activity in colon” value was “drastic reduction”. For the same substance, the “overall effect on the severity of IBD” value with TNBS colitis (experimental models of colitis, conclusion) is recorded as “protective effect”. Moreover, in assay [2], the IL-10 production result is reported as “clear prevalence of IL-10 production” and the “inflammatory/anti-inflammatory cytokine production pattern (IFN-γ, IL-17, IL-10)” value is reported as “significantly disrupted”.
